Reference: ChEMBL document CHEMBL4321873, “Optimization of Orally Bioavailable PI3Kδ Inhibitors and Identification of Vps34 as a Key Selectivity Target” (J Med Chem, 2020)
In brackets after ≈: the same amount, converted by molar mass.

Assays:
[1] = Permeability of the compound in pH 7.05 phosphate buffer measured after 3 hrs by artificial membrane permeability assay based LC-MS analysis; assay type: ADME; conditions: PAMPA, read-out: permeability
[2] = Clearance in Wistar Han rat at 1 mg/kg, iv by LC-MS/MS analysis; assay type: ADME, organism-based; conditions: in vivo
[3] = Clearance in Wistar Han rat at 1 mg/kg, iv by LC-MS/MS analysis relative to hepatic blood flow; assay type: ADME, organism-based; conditions: in vivo
[4] = Intrinsic clearance in human hepatocytes at 0.5 uM measured after 10 mins by LC-MS/MS analysis; assay type: ADME, cell-based, Hepatocyte
[5] = Intrinsic clearance in rat hepatocytes at 0.5 uM measured after 10 mins by LC-MS/MS analysis; assay type: ADME, cell-based, Hepatocyte
[6] = Kinetic solubility of the compound in pH 7.4 phosphate buffered saline measured after 1 hr by CLND method; assay type: physicochemical; conditions: read-out: Kinetic_solubility
[7] = Volume of distribution at steady state in Wistar Han rat at 1 mg/kg, iv or 1 mg/kg, po by LC-MS/MS analysis; assay type: ADME, organism-based; conditions: in vivo, read-out: Vdss
[8] = Half life in Wistar Han rat at 1 mg/kg, iv by LC-MS/MS analysis; assay type: ADME, organism-based; conditions: in vivo
[9] = Intrinsic clearance in minipig hepatocytes at 0.5 uM measured after 10 mins by LC-MS/MS analysis; assay type: ADME, cell-based, Sus scrofa domesticus, Hepatocyte; conditions: pig
[10] = AUC (0 to 24 hrs) in Wistar Han rat at 30 mg/kg, po administered once daily for 7 days by LC-MS/MS analysis; assay type: ADME, organism-based; parameters: dose 30 mg/kg, time < 24 hr, route oral; conditions: in vivo
[11] = AUC (0 to 4 hrs) in Wistar Han rat at 300 mg/kg, po administered once daily for 7 days by LC-MS/MS analysis; assay type: ADME, organism-based; parameters: dose 300 mg/kg, time < 4 hr, route oral; conditions: in vivo
[12] = Oral bioavailability in Wistar Han rat at 1 mg/kg by LC-MS/MS analysis; assay type: ADME, organism-based; conditions: in vivo
[13] = AUC (0 to 24 hrs) in Wistar Han rat at 100 mg/kg, po administered once daily for 7 days by LC-MS/MS analysis; assay type: ADME, organism-based; parameters: time < 24 hr, dose 100 mg/kg, route oral; conditions: in vivo
[14] = AUC (infinity) in Wistar Han rat at 1 mg/kg, po by LC-MS/MS analysis; assay type: ADME, organism-based; parameters: dose 1 mg/kg, time infinity, route oral; conditions: in vivo
[15] = Time at which plasma concentration stays at 10 times Kd(app) for binding affinity to PI3Kdelta in human HL60 cell extract in Wistar Han rat at 10 to 100 mg/kg, po administered twice daily for 7 days; assay type: ADME, organism-based; conditions: in vivo, 168 h
[16] = Time at which plasma concentration stays at 10 times Kd(app) for binding affinity to VPS34 in human HL60 cell extract in Wistar Han rat at 100 mg/kg, po administered once daily for 7 days; assay type: ADME, organism-based; conditions: in vivo, 168 h
[17] = Time at which plasma concentration stays at 10 times Kd(app) for binding affinity to PI3Kdelta in human HL60 cell extract in Wistar Han rat at 30 to 300 mg/kg, po administered once daily for 7 days; assay type: ADME, organism-based; conditions: in vivo, 168 h
[18] = AUC (0 to 24 hrs) in Wistar Han rat at 100 mg/kg, po administered twice daily for 7 days by LC-MS/MS analysis; assay type: ADME, organism-based; parameters: dose 100 mg/kg, time < 24 hr, route oral; conditions: in vivo
[19] = AUC (0 to 24 hrs) in Wistar Han rat at 30 mg/kg, po administered twice daily for 7 days by LC-MS/MS analysis; assay type: ADME, organism-based; parameters: dose 30 mg/kg, time < 24 hr, route oral; conditions: in vivo
[20] = AUC (0 to 24 hrs) in Wistar Han rat at 10 mg/kg, po administered twice daily for 7 days by LC-MS/MS analysis; assay type: ADME, organism-based; parameters: dose 10 mg/kg, time < 24 hr, route oral; conditions: in vivo

Row | SMILES | clearance [2] [mL/min/kg] | CL [3] [%] | intrinsic clearance [4] [mL/min/g] | Intrinsic clearance (CLint) [5] [mL/min/g] | solubility kinetic at 1 h [6] [µg/mL] | Vd [7] [L/kg] | half-life [8] [min] | CLH [9] [mL/min/g] | AUC(0-inf) [14] [ng·h/mL] | other results
1 | COc1ncc(-c2cc3c(c(OCCN4CCC(C(C)(C)O)CC4)c2)COC3)cc1NS(=O)(=O)CC#N |  |  |  |  |  |  |  |  |  | Papp at 3 h [1]: < 0.3 ×10⁻⁶ cm/s
2 | COc1ncc(-c2cc3c(c(OCCN4CCC(C(C)(C)O)CC4)c2)CCOC3)cc1NS(C)(=O)=O | 109 |  |  |  |  |  |  |  |  | 
3 | COCCS(=O)(=O)Nc1cc(-c2cc3c(c(OCCN4CCC(C(C)(C)O)CC4)c2)COC3)cnc1OC |  | 28 | < 0.9 | 1.6 |  |  |  |  |  | Papp at 3 h [1]: < 0.3 ×10⁻⁶ cm/s
4 | COCCS(=O)(=O)Nc1cc(-c2cc3c(c(OCCN4CCC(C(C)(C)O)CC4)c2)CCOC3)cnc1OC | 41 |  | < 0.9 | < 0.9 | ≥ 184 | 6.9 | 162 | < 0.9 |  | 
5 | COc1ncc(-c2cc3c(c(OCCN4CCC(C(C)(C)O)CC4)c2)COC3)cc1NS(C)(=O)=O | 48 | 62 | < 0.9 | 2.5 | 197 (≈ 390 µM) | 5.9 | 126 | < 0.9 | 148 | AUC at 24 h [10]: 5000 ng·h/mL; AUC at 4 h [11]: 27500 ng·h/mL; bioavailability [12]: 32%; AUC at 24 h [13]: 26300 ng·h/mL; Time [15]: 24 h; Time [16]: 24 h; Time [17]: 24 h
6 | COc1ncc(-c2cc3c(c(NC(=O)CN4CCOCC4)c2)COC3)cc1NS(C)(=O)=O |  |  |  |  |  |  |  |  | 673 | 
7 | COc1ncc(-c2cc(OCCN3CCC(C(C)(C)O)CC3)c3c(c2)[C@@H](C)OC3)cc1NS(C)(=O)=O |  |  | < 0.9 | 9.7 |  |  |  |  |  | 
8 | COCCS(=O)(=O)Nc1cc(-c2cc3c(c(OC[C@H]4CN(C5COC5)CCO4)c2)COC3)cnc1OC | 22 | 28 | < 0.3 | 1.2 | ≥ 270 | 2 | 192 | 0.9 | 829 | bioavailability [12]: 84%; Time [15]: 24 h; AUC at 24 h [18]: 114 µg·h/mL; AUC at 24 h [19]: 37400 ng·h/mL; Time [17]: 24 h; AUC at 24 h [20]: 12600 ng·h/mL
9 | COc1ncc(-c2cc(OCCN3CCC(C(C)(C)O)CC3)c3c(c2F)COC3)cc1NS(C)(=O)=O |  |  | < 0.9 | 4.5 |  |  |  |  |  | 
